From patent US20250282746A1, “HALOGEN-SUBSTITUTED ISOINDOLINE COMPOUND AND USE THEREOF” (CHENGDU FENDI PHARMACEUTICAL CO., LTD., priority 2022, published 2025)
Like-named read-outs stand apart in the source and are kept apart here.

Tests used:
Type in all cases: cell-based
AML-2 cells = test: Antiproliferative activity against various tumor cells: AML-2; conditions: 72 h, read-out: Antiproliferative activity IC50 AML-2
Procedure: U937, NCI-H929, AML-2, and MOLM-13 cells in the logarithmic growth phase were diluted in media RPMI+10% FBS, RPMI+10% FBS, MEMα+20% FBS, RPMI+20% FBS, respectively, and plated at 4,000 cells/well in 96-well whole black plates (WHB) with 50 μL/well. After plating, the plates were incubated in an incubator at 5% CO2 and 37° C. for 24 h before the compounds were added. The compounds were prepared into a 10 mM stock solution in DMSO and diluted in a culture medium to the desired concentrations (a final DMSO concentration of 0.2%). […] The plates were incubated at 5% CO2 and 37° C. for 72 h. After the incubation was complete, the plates were equilibrated at room temperature for 30 min. CellTiter-Glo® Reagent (Promega G7573) was added at 100 μL/well. The plates were shaken for 12 min on a microplate shaker. The luminescence value was measured at room temperature by the GloMax navigator (Promega GM2010).

hERG potassium channel = target: T1, hERG potassium channel (Homo sapiens, UniProt Q12809); test: hERG inhibition assay (automated patch clamp, HEK293); conditions: 3 μM, HEK293 cells, QPatch
T1 construct: expressed in transfected cells; host or cells: HEK293 cells
T1 sequence (Q12809 whole entry): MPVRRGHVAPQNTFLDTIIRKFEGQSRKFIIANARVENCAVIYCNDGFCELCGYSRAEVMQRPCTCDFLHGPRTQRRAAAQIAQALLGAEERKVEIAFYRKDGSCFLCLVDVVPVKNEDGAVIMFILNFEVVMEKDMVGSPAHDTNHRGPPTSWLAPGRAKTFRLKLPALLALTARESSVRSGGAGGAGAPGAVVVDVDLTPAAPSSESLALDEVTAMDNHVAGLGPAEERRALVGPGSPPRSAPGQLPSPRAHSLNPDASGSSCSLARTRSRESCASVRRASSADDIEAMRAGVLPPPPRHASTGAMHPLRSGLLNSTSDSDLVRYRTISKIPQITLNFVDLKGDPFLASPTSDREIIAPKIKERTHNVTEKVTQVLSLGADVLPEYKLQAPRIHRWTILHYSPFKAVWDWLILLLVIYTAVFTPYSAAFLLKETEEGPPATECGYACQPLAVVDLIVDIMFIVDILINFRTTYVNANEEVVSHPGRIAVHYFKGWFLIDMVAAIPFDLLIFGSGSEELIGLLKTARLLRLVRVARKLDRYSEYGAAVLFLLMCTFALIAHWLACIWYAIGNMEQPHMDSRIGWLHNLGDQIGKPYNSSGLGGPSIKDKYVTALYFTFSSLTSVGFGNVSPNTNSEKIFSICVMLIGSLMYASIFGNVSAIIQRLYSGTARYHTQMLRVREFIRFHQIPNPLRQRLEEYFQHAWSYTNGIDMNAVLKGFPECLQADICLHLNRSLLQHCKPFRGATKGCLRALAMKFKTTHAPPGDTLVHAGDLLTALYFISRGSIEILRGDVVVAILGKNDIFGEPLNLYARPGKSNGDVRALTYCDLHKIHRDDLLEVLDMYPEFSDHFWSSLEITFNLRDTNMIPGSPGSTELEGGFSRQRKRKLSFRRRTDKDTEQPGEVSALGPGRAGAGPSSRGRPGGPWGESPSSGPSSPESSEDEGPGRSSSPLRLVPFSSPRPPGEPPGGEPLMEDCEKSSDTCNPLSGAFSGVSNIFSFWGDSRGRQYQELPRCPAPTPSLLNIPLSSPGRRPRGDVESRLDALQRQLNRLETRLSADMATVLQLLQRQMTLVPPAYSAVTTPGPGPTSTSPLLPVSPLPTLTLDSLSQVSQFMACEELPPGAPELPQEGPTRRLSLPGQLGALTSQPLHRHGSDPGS
Text: The rapidly activating potassium channel encoded by human ether-a-go-go-related gene (hERG) is an important ion channel involved in the formation of cardiac action potential phase 3 repolarization. Blocking of the hERG channel by drugs can lead to the prolongation of cardiac repolarization and thus a prolonged QT interval in the electrocardiogram, known as long QT syndrome. Drug-induced delayed ventricular repolarization may in some cases trigger fatal arrhythmia-torsade de pointes-type ventricular tachycardia.
This assay was used to measure the effect of compounds on the hERG potassium channel clones expressed in human embryonic kidney (HEK293) cells. The assay procedures are as follows: the cells were transferred into a HEPES-buffered saline in glass-lined 96-well plates and exposed to an appropriate amount of test compound or control solution at various concentrations for 3 min. The test compounds were diluted in 0.3% DMSO.

MV-4-11 cells = test: Antiproliferative activity against MV-4-11 cells (CellTiter-Glo, 72 h); conditions: Homo sapiens
Outline: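 MV-4-11 cells in RPMI + 10% FBS plated at 5,000 cells/well and pre-incubated 24 h at 37 °C, 5% CO2. Compounds were then added (final DMSO 0.2%) and cells incubated 72 h. Viability was read by CellTiter-Glo luminescence after 30 min equilibration at room temperature.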

c-Myc = target: T2, c-Myc (Homo sapiens, UniProt P01106); test: Degradation of c-MYC protein in HL-60 cells (Western blot); conditions: 4 h
T2 construct: The whole cell lysate was prepared using a RIPA lysis buffer; endogenous in cells; host or cells: HL-60 cells
T2 sequence (P01106 whole entry): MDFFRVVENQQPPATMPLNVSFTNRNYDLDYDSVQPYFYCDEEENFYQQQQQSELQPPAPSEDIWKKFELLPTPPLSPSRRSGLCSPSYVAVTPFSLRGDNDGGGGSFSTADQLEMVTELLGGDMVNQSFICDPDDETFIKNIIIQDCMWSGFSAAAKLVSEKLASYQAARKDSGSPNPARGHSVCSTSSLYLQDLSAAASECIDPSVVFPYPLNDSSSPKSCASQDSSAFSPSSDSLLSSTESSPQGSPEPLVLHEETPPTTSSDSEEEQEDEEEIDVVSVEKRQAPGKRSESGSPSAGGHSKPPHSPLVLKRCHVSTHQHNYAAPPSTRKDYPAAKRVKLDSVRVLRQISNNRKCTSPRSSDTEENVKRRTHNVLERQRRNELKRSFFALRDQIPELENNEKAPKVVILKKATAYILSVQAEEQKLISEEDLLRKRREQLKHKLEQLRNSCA
Procedure: (§1) […] of DMSO and the compounds were added, and the mixture was incubated in an incubator at 5% CO2 and 37° C. for 4 h. The cells were centrifuged, and the culture medium was discarded. PBS was added for washing and then discarded. The whole cell lysate was prepared using a RIPA lysis buffer containing a protease inhibitor cocktail and a phosphatase inhibitor, and incubated on ice for 30 min. The mixture was centrifuged, and the cell debris was discarded. The whole cell lysate supernatant was collected and transferred to a fresh EP tube. Samples were prepared using a loading buffer after a BCA protein assay. The samples were incubated in a metal bath at 100° C. for 10 min. The samples were electrophoretically separated from proteins on a 4-20% precast gel (SDS-PAGE gel), transferred to a PVDF membrane, blocked with 5% NFDM/TBST for 1 h at room temperature, co-incubated overnight at 4° C. with the primary antibody, and co-incubated for 2 h at room temperature with the secondary antibody on the next day. The signals were detected on the […]™ imaging system.

NCI-H929 cells = test: Antiproliferative effect alone and in combination with dexamethasone against NCI-H929 cells; conditions: for IC50: Homo sapiens, NCI-H929, 72 h, 72 h
Procedure: (§2) MOLM-13 cells in the logarithmic growth phase were diluted in a medium RPMI+[…], and NCI-H929 cells were diluted in a medium RPMI+10% FBS. The cells were plated at 4,000 cells/well in 96-well whole black plates (WHB) with 50 μL/well. After plating, the plates were incubated in an incubator at 5% CO2 and 37° C. for 24 h before the compounds were added. The compounds were prepared into a 10 mM stock solution in DMSO and diluted in a culture medium to the desired concentrations (a final DMSO concentration of 0.2%). 50 μL of the compound dilutions at final concentrations of 10,000, 3,333.33, 1,111.11, 370.37, 123.46, 41.15, 13.72, 4.57, 1.52, and 0 nM were added to the 96-well plates containing the cells, that is, each compound was serially diluted to 10 concentrations in duplicate. The plates were incubated at 5% CO2 and 37° C. for 72 h. When pharmaceutical partners were used, the concentrations of azacitidine and dexamethasone were kept at 200 nM and 500 nM respectively, and the compounds were serially three-fold diluted from 10,000 nM. After the incubation was complete, the plates were equilibrated at room temperature for 30 min. CellTiter-Glo® Reagent (Promega G7573) was added at 100 μL/well. The plates were shaken for 12 min on a microplate shaker. The luminescence value was measured at room temperature by the GloMax navigator (Promega GM2010). The IC50 values were calculated using the GraphPad Prism 7 software with the 0 nM control group as 0% inhibition.

IKZF1 = target: T3, IKZF1 (Homo sapiens, UniProt Q13422); test: Degradation of IKZF1 protein in HL-60 cells (Western blot); conditions: 4 h
T3 construct: The whole cell lysate was prepared using a RIPA lysis buffer; endogenous in cells; host or cells: HL-60 cells
T3 sequence (Q13422 whole entry): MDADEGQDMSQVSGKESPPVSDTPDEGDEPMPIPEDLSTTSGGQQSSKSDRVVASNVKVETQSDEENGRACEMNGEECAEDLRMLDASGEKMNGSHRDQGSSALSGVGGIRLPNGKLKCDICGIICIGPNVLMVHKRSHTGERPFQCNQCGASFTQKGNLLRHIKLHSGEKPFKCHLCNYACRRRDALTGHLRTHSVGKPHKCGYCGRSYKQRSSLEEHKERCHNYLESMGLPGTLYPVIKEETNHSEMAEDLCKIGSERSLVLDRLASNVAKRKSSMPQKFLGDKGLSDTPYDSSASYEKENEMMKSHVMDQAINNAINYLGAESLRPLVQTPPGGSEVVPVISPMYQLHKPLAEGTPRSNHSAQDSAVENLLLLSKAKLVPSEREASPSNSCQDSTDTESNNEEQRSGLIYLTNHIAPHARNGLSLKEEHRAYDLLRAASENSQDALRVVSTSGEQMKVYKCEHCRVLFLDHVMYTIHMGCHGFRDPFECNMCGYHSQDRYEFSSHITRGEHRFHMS
Procedure: as §1

MOLM-13 cells = test: Antiproliferative effect alone and in combination with azacitidine against MOLM-13 cells; conditions: MOLM-13 cells; for IC50: Homo sapiens, MOLM-13, 72 h, 72 h
Procedure: as §2

SMILES | IC50 (AML-2 cells) | hERG inhibition rate (hERG potassium channel) | IC50 (MV-4-11 cells; MV4-11, 72 h, read-out: Antiproliferative activity IC50) | IC50 (MV-4-11 cells; MV4-11, read-out: IC50 against MV-4-11 cell proliferation) | c-Myc degradation (c-Myc; 10 nM) | c-Myc degradation (c-Myc; 100 nM) | c-Myc degradation (c-Myc; 1000 nM) | increase of antiproliferative activity IC50 when combined with 500 nM dexamethasone (NCI-H929 cells) | IC50 (NCI-H929 cells; compound alone) | IC50 (NCI-H929 cells; in combination with 500 nM dexamethasone) | IKZF1 degradation (IKZF1; 10 nM) | IKZF1 degradation (IKZF1; 100 nM) | IKZF1 degradation (IKZF1; 1000 nM) | IC50 (AML-2 cells; AML-2 cells) | IC50 (MV-4-11 cells; MV4-11, MV-4-11 cells, 72 h, read-out: Antiproliferative activity IC50) | IC50 (MOLM-13 cells; compound alone) | IC50 (MOLM-13 cells; in combination with 200 nM azacitidine) | activity relative to CC-90009, alone or in combination with azacitidine (MOLM-13 cells) | increase of antiproliferative activity IC50 when combined with 200 nM azacitidine (MOLM-13 cells)
O=C1CCC(N2Cc3c(ccc(CNC(=O)c4ccc(Cl)cc4)c3F)C2=O)C(=O)N1 (centres unmarked) [FDAB-48] | 100 to 1000 nM | 25% | 10 to 100 nM | 10.8 nM | D (D denotes a percentage of degradation less than 25%) | D (D denotes a percentage of degradation less than 25%) | C (C denotes a percentage of degradation less than 500% but not less than 250%) | about 6 folds | 14.3 nM | 2.45 nM | B (B denotes a percentage of degradation less than 800% but not less than 500%) | A (A denotes a percentage of GSPT1 protein degradation not less than 8000) | A (A denotes a percentage of GSPT1 protein degradation not less than 8000) |  |  |  |  |  | 
Cc1ccc(C(=O)NCc2ccc3c(c2F)CN(C2CCC(=O)NC2=O)C3=O)c(F)c1 (centres unmarked) [FDAB-121] |  | 9% |  |  | D (D denotes a percentage of degradation less than 25%) | D (D denotes a percentage of degradation less than 25%) | D (D denotes a percentage of degradation less than 25%) |  |  |  | B (B denotes a percentage of degradation less than 800% but not less than 500%) | A (A denotes a percentage of GSPT1 protein degradation not less than 8000) | A (A denotes a percentage of GSPT1 protein degradation not less than 8000) | 10 to 100 nM | 1 to 10 nM | 248 nM | 9.68 nM | about 5 folds | about 25 folds
